# In patent US7199285B2, “Modulation of abscisic acid signal transduction in plants” (University of California, San Diego, priority 2000, dated 2007):
# Assays:
# [1] = system: Arabidopsis thaliana seeds; assay: seed germination on minimum medium with ABA; format: in vivo; settings: 0.3 μM ABA
# Method: This was carried out using Arabidopsis lines (Columbia background, T3 seeds), which were transformed with a T-DNA (SK1015) (D. Weigel et al., Plant Physiol., 122:1003 (2000)), and plated on minimum medium (0.25×MS) with 0.3 μM ABA. After 4 days at 4° C., seeds were transferred to 28° C., continuous light. After 5 more days, germination was analyzed. Non-germinated seeds were transferred to soil and further analyzed.
# abh1 mutant = assay: seed germination, hypocotyl and root growth assays in the presence of hormones; format: in vivo, Arabidopsis thaliana; settings: abh1, hormone concentrations from 10 nM to 100 μM
# Method: Other hormone signaling mutants were analyzed in control experiments: axr1–3 (auxin insensitive) (C. Lincoln et al., Plant Cell, 2:1071(1990)), ein2-1 (ethylene insensitive) (J. M. Alonso et al., Science, 284:2148 (1999)), gai-1 (GA insensitive) (M. Koornneef et al., Physiol Plant., 65:33 (1985)), era1-2 (ABA hypersensitive) (S. Cutler et al., Science, 273:1239 (1996))), and jar1-1 (JA insensitive) (P. E. Staswick et al., Proc. Natl. Acad. Sci. U.S.A., 89:6837 (1992)).
# guard cells [2] = assay: stomatal closure in response to ABA; format: cell-based, Arabidopsis thaliana; settings: abh1, stomata opened 12 hours at 95% humidity
# Method: ABH1 is expressed in guard cells. To determine whether ABH1 modulates early ABA signal transduction elements, stomatal closure in response to ABA was investigated. Stomata were opened by exposing plants for 12 hours to high humidity (95%). Under these conditions stomatal apertures were similar in wild-type and abh1 (2.03±0.19 μm, wild-type, n=60; 1.92±0.21 μm, abh1, n=60; P>0.38). Stomatal closure in abh1 was ABA hypersensitive compared to wild-type (P<0.001). When stomatal apertures were measured in leaves harvested directly from plants grown under lower humidity (40%), without exogenous ABA addition, stomatal apertures of abh1 were smaller than those of wild-type plants (P<0.001), possibly resulting from a hypersensitive response to endogenous ABA.
# guard cells [3] = assay: time-resolved cameleon [Ca2+]cyt imaging of ABA-induced [Ca2+]cyt elevations; format: cell-based, Arabidopsis thaliana
# Method: Due to the basal regulation of anion and K^+ channels in abh1 without addition of exogenous ABA, experiments were pursued to analyze whether mechanisms lying further upstream confer ABA hypersensitivity in abh1. […] Therefore we directly investigated whether abh1 modulates ABA-induced [Ca^2+]cyt elevations in time-resolved cameleon [Ca^2+]cyt imaging experiments (G. J. Allen et al, The Plant J., 19:735 (1999)). Stomata were opened by exposing plants for 12 hours to 95% humidity.
Compound,germination ([1]; abh1 mutant seeds),germination ([1]; wild-type seeds),phenotypic response (sensitivity) of abh1 mutant to hormone (abh1 mutant),stomatal closure sensitivity compared to wild-type (guard cells [2]),"cells responding with one [Ca2+]cyt elevation (guard cells [3]; abh1, 0.5 μM ABA) [%]","cells showing multiple repetitive [Ca2+]cyt increases (guard cells [3]; abh1, 0.5 μM ABA) [%]","cells showing no response (guard cells [3]; abh1, 0.5 μM ABA) [%]","guard cells showing [Ca2+]cyt increases (guard cells [3]; abh1, 0.5 μM ABA) [%]","average peak increase of [Ca2+]cyt (guard cells [3]; wild-type, 0.5 μM ABA) [nM]","guard cells showing [Ca2+]cyt increase (typically only one) (guard cells [3]; wild-type, 0.5 μM ABA) [%]","guard cells showing no [Ca2+]cyt increase (guard cells [3]; wild-type, 0.5 μM ABA) [%]"
"CC1=CC(=O)CC(C)(C)[C@@]1(O)/C=C/C(C)=C\C(=O)O [ABA, abscisic acid]",inhibited,allowed germination,showed phenotypic responses only to ABA,hypersensitive,19,45,36,64,170 ± 25,44,56
"C=C1C[C@]23C[C@@]1(O)CC[C@H]2[C@@]12C=C[C@H](O)[C@@](C)(C(=O)O1)[C@H]2[C@@H]3C(=O)O [GA, gibberellic acid]",,,slightly reduced sensitivity,,,,,,,,
